# Measurements as given in patent US20230000876A1, “TREATING CANCERS WITH A CYCLIN-DEPENDENT KINASE INHIBITOR” (Nuvation Bio Inc., priority 2021, published 2023).
# Legend:
# Nalm-6-luc = assay: CellTiter-Glo anti-proliferation assay, Nalm-6-luc; type: cell-based
# Procedure: The anti-proliferation effect of 2 compounds (the compound of formula (I) and temozolomide) in 7 CNS metastasis cell lines (MOLT-4-luc, Nalm-6-luc, NCI-H460-luc, ACHN-luc2, PC-9-luc, H1975-luc, and KM12-luc) was evaluated.
# The plating of cells and compound treatments are shown below in the plate map (Table 12). One plate was needed for the test of 2 compounds (the compound of formula (I) and temozolomide) in one cell line. The compound of formula (I) was tested from 10 μM, 3-fold serial dilution. Temozolomide was tested from 100 μM, 3-fold serial dilution.
# All the cell lines were maintained in culture conditions at 37° C. in an atmosphere with 5% CO2 in air. The tumor cells were routinely subcultured. The cells growing in an exponential growth phase were harvested and counted for plating.
# Cells were counted by haemocytometer with Trypan blue staining. Next, 135 μL of cell suspension were plated into the assay plates according to the plate map and 135 μL of assay medium into the blank wells. The plates were incubated at 37° C., 5% CO2, 95% air and 100% relative humidity overnight.
# (§1) 4.4.4 Compound Plate (10×) Preparation and Compound Treatment • 10× concentrate compound plate preparation: Add 198 μL of assay medium into each well of the V-bottom plate; then transfer 2 μL of the stock compound solution of each concentration from the stock plate. Add 2 μL of DMSO into the Blank and Control wells. Pipette up and down to mix well. This V-plate is designated as the 10× concentrate compound plate. • For day 0 plate, add 15 μL of the DMSO-medium into the Control wells. The final DMSO concentration was 0.1%. Then directly proceed to cell viability assay. • For assay plate, add 15 μL of the compound-medium of each well from the 10× concentrate compound plate into the cells in 96-well assay plate according to the plate map. Add 15 μL of the DMSO-medium into the Blank and Control wells. The final DMSO concentration was 0.1%. • Return the assay plate into incubator and incubate for 6 days.
# (§2) The procedures were performed according to the Promega CellTiter-Glo Luminescent Cell Viability Assay Kit manual (Promega-G7573). • The CellTiter-Glo buffer was thawed and equilibrated to room temperature prior to use. • CellTiter-Glo Substrate was equilibrated to room temperature prior to use. • The entire liquid volume of CellTiter-Glo Buffer was transferred into the amber bottle containing CellTiter-Glo Substrate to reconstitute the lyophilized enzyme/substrate mixture. This forms the CellTiter-Glo Reagent. • The contents were mixed by gently vortexing to obtain a homogeneous solution. • The plate was equilibrated and its contents to room temperature for approximately 30 minutes. 75 μL (equal to the half volume of culture medium present in each well) CellTiter-Glo • Reagent was added in each well. Plates were covered with aluminum foil to protect from light. • The contents were mixed for 2 minutes on an orbital shaker to induce cell lysis. • The plate was incubated at room temperature for 20 minutes to stabilize luminescent signal. • Record luminescence on the 2104 EnVision plate reader.
# Inhibition rate (IR) of the tested compounds was determined by the following formula: IR (%)=(1−(RLU compound−RLU day0)/(RLU control−RLU day0))*100%. The inhibitions of different dose of compound were calculated in Excel file, and then were used to plot inhibition curves and evaluate related parameters, such as Min (%), Max (%) and GI50. The data were interpreted by GraphPad Prism.
# COLO 829 = assay: Cell viability assay, melanoma cell line COLO 829; type: cell-based
# Procedure: as §1
# as §2, with “This forms the CellTiter-Glo Reagent. • The contents were mixed by gently vortexing to obtain a homogeneous solution. • The plate was equilibrated and its contents to room temperature for approximately 30 minutes. 75 μL (equal to the half volume of culture medium present in each well) CellTiter-Glo • Reagent was added in each well.” left out
# (§3) Inhibition rate (IR) of the tested compounds was determined by the following formula: IR (%)=(1−(RLU compound−RLU day0)/(RLU control−RLU day0))*100%. The inhibitions of different dose of compound were calculated in Excel file, and then were used to plot inhibition curves and evaluate related parameters, such as Min (%), Max (%) and GI50. […]
# SK-MEL-24 = assay: Cell viability assay, melanoma cell line SK-MEL-24; type: cell-based
# Procedure: as §1
# as §2, with “This forms the CellTiter-Glo Reagent. • The contents were mixed by gently vortexing to obtain a homogeneous solution. • The plate was equilibrated and its contents to room temperature for approximately 30 minutes. 75 μL (equal to the half volume of culture medium present in each well) CellTiter-Glo • Reagent was added in each well.” left out
# as §3
# SK-MEL-28 = assay: Cell viability assay, melanoma cell line SK-MEL-28; type: cell-based
# Procedure: as §1
# as §2, with “This forms the CellTiter-Glo Reagent. • The contents were mixed by gently vortexing to obtain a homogeneous solution. • The plate was equilibrated and its contents to room temperature for approximately 30 minutes. 75 μL (equal to the half volume of culture medium present in each well) CellTiter-Glo • Reagent was added in each well.” left out
# as §3
# xBT474 breast tumor = xBT474 breast tumor model (ER-negative/HER2-positive); conditions: Group 5: Compound (I) 30 mg/kg PO QD*28 days
# [1] = inhibition rate, 6 days, Compound (I) from 10 μM, temozolomide from 100 μM, 3-fold, 9 points
smiles,measurement,setting,value
"CC(C)N1CCOc2c(F)cc(-c3nc(Nc4ccc(C5CCN(C)CC5)cn4)ncc3F)cc21 [Compound (I), 5-fluoro-4-(8-fluoro-4-isopropyl-3,4-dihydro-2H-benzo[b][1,4]oxazin-6-yl)-N-(5-(1-methylpiperidin-4-yl)pyridin-2-yl)pyrimidin-2-amine]",GI50,"Nalm-6-luc; 144 h, 6 days incubation, read-out: Absolute GI50",154 nM
same,Max (%),Nalm-6-luc; [1],105.6%
same,Min (%),Nalm-6-luc; [1],−20.8%
same,GI50,"COLO 829; Homo sapiens, COLO-829, read-out: Absolute GI50",875 nM
same,Max (%),COLO 829; inhibition rate,107.94%
same,Min (%),COLO 829; inhibition rate,−3.11%
same,GI50,"SK-MEL-24; Homo sapiens, SK-MEL-24, read-out: Absolute GI50",151 nM
same,Max (%),SK-MEL-24; inhibition rate,113.43%
same,Min (%),SK-MEL-24; inhibition rate,1.36%
same,GI50,"SK-MEL-28; Homo sapiens, SK-MEL-28, read-out: Absolute GI50",152 nM
same,Max (%),SK-MEL-28; inhibition rate,106.21%
same,Min (%),SK-MEL-28; inhibition rate,1.70%
same,Tumor volume (mean ± SEM),xBT474 breast tumor; Day 0,146 ± 8 mm^3
same,Tumor volume (mean ± SEM),xBT474 breast tumor; Day 4,240 ± 20 mm^3
same,Tumor volume (mean ± SEM),xBT474 breast tumor; Day 7,250 ± 22 mm^3
same,Tumor volume (mean ± SEM),xBT474 breast tumor; Day 11,347 ± 45 mm^3
same,Tumor volume (mean ± SEM),xBT474 breast tumor; Day 14,408 ± 42 mm^3
same,Tumor volume (mean ± SEM),xBT474 breast tumor; Day 18,490 ± 59 mm^3
same,Tumor volume (mean ± SEM),xBT474 breast tumor; Day 21,549 ± 73 mm^3
same,Tumor volume (mean ± SEM),xBT474 breast tumor; Day 25,576 ± 79 mm^3
same,Tumor volume (mean ± SEM),xBT474 breast tumor; Day 28,617 ± 84 mm^3
same,Tumor volume (mean ± SEM),xBT474 breast tumor; Day 32,658 ± 99 mm^3
same,Tumor volume (mean ± SEM),xBT474 breast tumor; Day 35,721 ± 119 mm^3
same,Tumor volume (mean ± SEM),xBT474 breast tumor; Day 39,685 ± 107 mm^3
same,Tumor volume (mean ± SEM),xBT474 breast tumor; Day 42,694 ± 120 mm^3
same,Tumor volume (mean ± SEM),xBT474 breast tumor; Day 46,707 ± 116 mm^3
